# Assay results taken from article PMC6950567, “Evaluation of Marine Diindolinonepyrane in Vitro and in Vivo: Permeability Characterization in Caco-2 Cells Monolayer and Pharmacokinetic Properties in Beagle Dogs” (Marine Drugs, 2019).
# “Also recorded” adds a separate entry of the source. Read-outs that look alike come from different tables or passages of the source.
# What was measured:
# fibrinolytic enzyme = system: fibrinolytic enzyme; set-up: method as in earlier work; conditions: cited from earlier work
# [1] = Short-term stability in beagle dog plasma; type: in vitro ADME; conditions: 24 h, residual/initial
# Protocol: The stability of 2,5-BHPA was assayed at 1, 100, and 400 mg/L. The short-term stability of 2,5-BHPA stored at 37 °C was determined after 24 h. Stability was defined as the amount of 2,5-BHPA residual after 24 h divided by the initial amount.
# [2] = Caco-2 cells monolayer absorption and bidirectional transport experiment; type: in vitro ADME, human; conditions: human
# Protocol: (§1) The samples included three control drugs (fenoterol, propranolol, and digoxin) and 2,5-BHPA. […] For transfer in the AP→BL direction, 0.075 mL drug solution was added to the AP side as the supply pool, and 0.25 mL HBSS solution was added to the BL side as the receiving pool. In the BL→AP direction, 0.25 mL compound solution was added to the BL side as the supply pool, and 0.075 mL HBSS solution was added to the AP side as the receiving pool. The transwell plate was then cultured in an incubator at 37 °C for 2 h. Samples on the AP side and BL side were collected, respectively. Then, acetonitrile containing an internal label was added to each upper chamber to lyse transport membranes. The total recovery was calculated by collecting the amount of lead compound absorbed on the membrane surface or accumulated in the cell. Finally, the concentration of each sample was calculated as the ratio of the peak area between the compound and the inner target through mass spectrum analysis (API 4000).
# (§2) Papp = (dCr/dt) × Vr/(A × C0)(2) where dCr/dt is the cumulative compound concentration per unit of time (µM/s); Vr is the volume in the receiving hole (mL); A is the transport membrane area; and C0 is the compound initiation concentration (µM).
# Caco-2 cells monolayer = assay: as above; type: in vitro ADME, human
# Protocol: as §1, §2
# [3] = Pharmacokinetics after intravenous injection in beagle dogs; type: in vivo; conditions: for Cmax / MRT / clearance / half-life: male, dog, whole blood
# Protocol: Male beagle dogs (SPF, 10.2–10.8 kg, aged 2 years) were provided by the Xingang Experimental Animal Co., Ltd. (Shanghai, China). All dogs were fed with standard laboratory food and water ad libitum at least 3 days prior to the experiments in an environmentally controlled room (12 h dark-light cycle; ~25 °C, 60% humidity, GB14925-2001). All protocols and procedures were approved by the Institutional Animal Care and Use Committee of Shanghai Ocean University (Approval number: 13-0012). The blood and tissues of the dogs were removed while the dogs were ether anesthetized. Their plasma was collected from the fossa orbitalis vein. Every effort was made to minimize animal pain and suffering.
# 2,5-BHPA was dissolved in normal saline with NaHCO3 as a solvent (2,5-BHPA/NaHCO3, m/m, 1:1), which was agitated overnight on a magnetic stirrer. Subsequently, it was diluted to different concentrations, filtered, and stored in a refrigerator at 4 °C. The dose was adjusted according to the body weight of the beagle dogs in a volume of 200 µL, and 2,5-BHPA was administered by intravenous injection (7.5, 5.0, and 2.5 mg/kg). Subcutaneous injection in the forearm was used in the experiment.
# Nine dogs were randomly divided into three groups (n = 3) and fasted for 24 h with water ad libidum. 2,5-BHPA was administered by intravenous injection (7.5, 5.0, and 2.5 mg/kg). The volume of the three sample levels was identical. The blood samples of 200 µL were drawn at 0, 1, 5, 15, 30, 40, 60, 120, and 240 min after drug treatment, and the samples were immediately stored with 1.8 mL of methanol (methanol:blood = 9:1, v/v). The samples were mixed and centrifuged at 5000× g for 15 min at RT, and the supernatants were filtered for HPLC analysis.
# The data were processed with Microsoft Excel 2013 edited by Microsoft (Seattle, WA, USA) and SPSS V25.0 edited by SPSS (Chicago, IL, USA). PKsolver V2.0 edited by China Pharmaceutical University (Nanjing, China) was used to calculate the pharmacokinetic parameters and the compartment model. The image was processed with Origin 9.0 software edited by Origin Lab (Northampton, MA, USA).
# [4] = 5 µM, 0.1% bull serum albumin added
# [5] = 15 µM, 0.1% bull serum albumin added
# [6] = 25 µM, 0.1% bull serum albumin added
# [7] = beagle dogs, intravenous, 2.5 mg·kg^−1
# [8] = beagle dogs, intravenous, 5.0 mg·kg^−1
# [9] = beagle dogs, intravenous, 7.5 mg·kg^−1
smiles,measurement,setting,value
"CC(C)=CCCC(C)=CCCC1(C)Oc2c(c(O)cc3c2CN(CCCC(C(=O)O)N2Cc4c(cc(O)c5c4OC(C)(CCC=C(C)CCC=C(C)C)C(O)C5)C2=O)C3=O)CC1O (centres unmarked) [2,5-BHPA, 2,5-Bis-[8-(4,8-dimethyl-nona-3,7-dienyl)-5,7-dihydroxy-8-methyl-3-keto-1,2,7,8-tertahydro-6H-pyran[a]isoindol-2-yl]-pentanoic acid]",fibrinolytic activity,fibrinolytic enzyme,has been shown to have fibrinolytic activity
same,Stability,"[1]; 1.0 μg·mL^−1, 37 °C",94.69 ± 5.37%
same,Stability,"[1]; 100 μg·mL^−1, 37 °C",98.39 ± 2.25%
same,Stability,"[1]; 400 μg·mL^−1, 37 °C",97.63 ± 5.91%
same,"efflux ratio at 2 h, 0.5 µM","[2]; Caco-2, 0.5 μM, no BSA",1.13
same,"Papp A→B at 2 h, 0.5 µM","[2]; Caco-2, 0.5 μM, no BSA, 2 h, read-out: Mean Papp AP to BL",0.493 ± 0.016 ×10⁻⁶ cm/s
same,"Papp B→A at 2 h, 0.5 µM","[2]; Caco-2, 0.5 μM, no BSA, 2 h, read-out: Mean Papp BL to AP",0.555 ± 0.09 ×10⁻⁶ cm/s
same,"efflux ratio at 2 h, 2 µM","[2]; Caco-2, 2 μM, no BSA",1.55
same,"Papp A→B at 2 h, 2 µM","[2]; Caco-2, 2 μM, no BSA, 2 h, read-out: Mean Papp AP to BL",0.048 ± 0.006 ×10⁻⁶ cm/s
same,"Papp B→A at 2 h, 2 µM","[2]; Caco-2, 2 μM, no BSA, 2 h, read-out: Mean Papp BL to AP",0.065 ± 0.005 ×10⁻⁶ cm/s
same,"efflux ratio at 2 h, 5 µM","[2]; Caco-2, 5 µM, 0.1% bull serum albumin added",1.56
same,"Papp A→B at 2 h, 5 µM","[2]; Caco-2, 5 µM, 0.1% bull serum albumin added, read-out: Mean Papp AP to BL",0.097 ± 0.005 ×10⁻⁶ cm/s
same,"Papp B→A at 2 h, 5 µM","[2]; Caco-2, 5 µM, 0.1% bull serum albumin added, read-out: Mean Papp BL to AP",0.153 ± 0.012 ×10⁻⁶ cm/s
same,"efflux ratio at 2 h, 5 µM","[2]; Caco-2, 5 μM, no BSA",1.06
same,"Papp A→B at 2 h, 5 µM","[2]; Caco-2, 5 μM, no BSA, 2 h, read-out: Mean Papp AP to BL",0.044 ± 0.003 ×10⁻⁶ cm/s
same,"Papp B→A at 2 h, 5 µM","[2]; Caco-2, 5 μM, no BSA, 2 h, read-out: Mean Papp BL to AP",0.043 ± 0.004 ×10⁻⁶ cm/s
same,"efflux ratio at 2 h, 15 µM","[2]; Caco-2, 15 µM, 0.1% bull serum albumin added",2.91
same,"Papp A→B at 2 h, 15 µM","[2]; Caco-2, 15 µM, 0.1% bull serum albumin added, read-out: Mean Papp AP to BL",0.045 ± 0.002 ×10⁻⁶ cm/s
same,"Papp B→A at 2 h, 15 µM","[2]; Caco-2, 15 µM, 0.1% bull serum albumin added, read-out: Mean Papp BL to AP",0.132 ± 0.035 ×10⁻⁶ cm/s
same,"efflux ratio at 2 h, 25 µM","[2]; Caco-2, 25 µM, 0.1% bull serum albumin added",1.49
same,"Papp A→B at 2 h, 25 µM","[2]; Caco-2, 25 µM, 0.1% bull serum albumin added, read-out: Mean Papp AP to BL",0.146 ± 0.009 ×10⁻⁶ cm/s
same,"Papp B→A at 2 h, 25 µM","[2]; Caco-2, 25 µM, 0.1% bull serum albumin added, read-out: Mean Papp BL to AP",0.216 ± 0.031 ×10⁻⁶ cm/s
same,Papp at 2 h,"[2]; Caco-2, text summary of Table 2, 0.1% BSA added, read-out: Papp, AP→BL or BL→AP direction",≤ 2.5 ×10⁻⁶ cm/s
same,recovery at 2 h,"[2]; Caco-2, text summary of Table 2, 0.1% BSA added, read-out: total recovery rate",> 90%
same,Papp at 2 h,"[2]; Caco-2, text summary, no BSA, over the concentrations tested, read-out: Papp range",0.04 to 0.49 ×10⁻⁶ cm/s
same,recovery at 2 h,"[2]; Caco-2, text summary, no BSA, over the concentrations tested, read-out: total recovery rate AP→BL",35.8 to 52.4%
same,recovery at 2 h,"[2]; Caco-2, text summary, no BSA, over the concentrations tested, read-out: total recovery rate BL→AP",25.9 to 53%
same,Recoveries AP to BL,"Caco-2 cells monolayer; 0.5 μM, no BSA",8.745 ± 0.155%
same,Recoveries BL to AP,"Caco-2 cells monolayer; 0.5 μM, no BSA",25.54 ± 1.55%
same,Total Recoveries AP to BL,"Caco-2 cells monolayer; 0.5 μM, no BSA",35.77 ± 1.29%
same,Total Recoveries BL to AP,"Caco-2 cells monolayer; 0.5 μM, no BSA",25.48 ± 1.13%
same,transport mechanism in the Caco-2 model,Caco-2 cells monolayer; 2 µM to 25 µM,may involve passive diffusion
same,Recoveries AP to BL,"Caco-2 cells monolayer; 2 μM, no BSA",13.419 ± 0.566%
same,Recoveries BL to AP,"Caco-2 cells monolayer; 2 μM, no BSA",47.16 ± 1.32%
same,Total Recoveries AP to BL,"Caco-2 cells monolayer; 2 μM, no BSA",39.67 ± 1.47%
same,Total Recoveries BL to AP,"Caco-2 cells monolayer; 2 μM, no BSA",47.69 ± 2.10%
same,Recoveries AP to BL,Caco-2 cells monolayer; [4],85.52 ± 2.34%
same,Recoveries BL to AP,Caco-2 cells monolayer; [4],96.32 ± 5.15%
same,Total Recoveries AP to BL,Caco-2 cells monolayer; [4],92.83 ± 3.44%
same,Total Recoveries BL to AP,Caco-2 cells monolayer; [4],96.41 ± 3.52%
same,Recoveries AP to BL,"Caco-2 cells monolayer; 5 μM, no BSA",26.76 ± 1.02%
same,Recoveries BL to AP,"Caco-2 cells monolayer; 5 μM, no BSA",52.42 ± 2.20%
same,Total Recoveries AP to BL,"Caco-2 cells monolayer; 5 μM, no BSA",52.34 ± 4.34%
same,Total Recoveries BL to AP,"Caco-2 cells monolayer; 5 μM, no BSA",53.02 ± 2.01%
same,Recoveries AP to BL,Caco-2 cells monolayer; [5],84.85 ± 3.36%
same,Recoveries BL to AP,Caco-2 cells monolayer; [5],96.18 ± 6.56%
same,Total Recoveries AP to BL,Caco-2 cells monolayer; [5],92.83 ± 4.26%
same,Total Recoveries BL to AP,Caco-2 cells monolayer; [5],96.97 ± 4.32%
same,Recoveries AP to BL,Caco-2 cells monolayer; [6],82.25 ± 2.28%
same,Recoveries BL to AP,Caco-2 cells monolayer; [6],89.52 ± 4.19%
same,Total Recoveries AP to BL,Caco-2 cells monolayer; [6],90.91 ± 4.63%
same,Total Recoveries BL to AP,Caco-2 cells monolayer; [6],89.63 ± 3.26%
same,permeability classification,Caco-2 cells monolayer; Papp ≤ 2.5 (×10^−6 cm·s^−1) indicated low permeability,low permeability
same,K10,[3]; [7],0.055 ± 0.021 min⁻¹
same,K12,[3]; [7],0.009 ± 0.004 min⁻¹
same,K21,[3]; [7],0.018 ± 0.001 min⁻¹
same,K10,[3]; [8],0.075 ± 0.012 min⁻¹
same,K12,[3]; [8],0.017 ± 0.002 min⁻¹
same,K21,[3]; [8],0.018 ± 0.001 min⁻¹
same,K10,[3]; [9],0.051 ± 0.015 min⁻¹
same,K12,[3]; [9],0.007 ± 0.004 min⁻¹
same,K21,[3]; [9],0.017 ± 0.003 min⁻¹
same,compartment model of plasma concentration-time curves,"[3]; beagle dogs, intravenous, 7.5, 5.0, 2.5 mg·kg^−1, weight = 1/c^2",fitted well to a two-compartment model; also recorded: consistent with the two-compartment model
same,half-life (T1/2) in dogs compared with rats,[3]; dogs (this study) versus rats [14],about two times longer than in rats
same,dose linearity of pharmacokinetics,"[3]; dogs, intravenous, dose range 2.5-7.5 mg/kg, from CL and MRT",linear pharmacokinetic characteristics
same,Cmax,[3]; [7],13600 ± 2760 ng/mL
same,MRT,[3]; [7],28.7 min
same,clearance,[3]; [7],9.2 ± 0.6 mL/min/kg
same,half-life,[3]; [7],49 ± 2 min
same,Cmax,[3]; [8],48600 ± 5530 ng/mL
same,MRT,[3]; [8],26.2 min
same,clearance,[3]; [8],7.1 ± 0.8 mL/min/kg
same,half-life,[3]; [8],48 ± 2 min
same,Cmax,[3]; [9],56500 ± 6230 ng/mL
same,MRT,[3]; [9],28.2 min
same,clearance,[3]; [9],6.2 ± 0.4 mL/min/kg
same,half-life,[3]; [9],49 ± 2 min
